Results reported in the supplement of paper PMC8671470.
± gives the standard deviation of the averaged measurements.

Legend:
Settings in all cases: 72 h
MV4-11 [1] = test system: MV4-11
How it was run: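 Fifteen myeloid leukaemia cell lines were seeded in RPMI 1640 at a density titrated to the linear growth range. Each line went into 384-well plates with compounds acoustically pre-printed at five tenfold doses from 1 to 10,000 nM, in duplicate, and was incubated for 72 h at 37 °C with 5% CO2. Luminescent ATP viability was normalised to vehicle and to a positive control at 10 µM. The IC50 came from four-parameter log-logistic dose–response fits.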

HL-60 [2] = test: cell viability (% survival relative to DMSO control); higher = less cytotoxic
How it was run: (§1)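 For each screen, HL-60 cells in RPMI 1640 with 10% FBS carried either DMSO or 100 nM of one of three metabolic inhibitors while the full library was applied at five tenfold concentrations, 1–10,000 nM, in duplicate. Plates were 384-well and were kept 72 h at 37 °C, 5% CO2. Viability, measured by CellTiter-Glo, was normalised to wells with DMSO and with 10 μM proteasome inhibitor. Where area under the curve appears, it was fitted by four-parameter log-logistic models in drc and PharmacoGx.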

BV-173 = test: cell viability (% survival relative to DMSO control, bortezomib = 0%); higher = less cytotoxic
How it was run: (§2)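 Reported values are percent survival from duplicate wells, averaged. Fifteen myeloid leukaemia cell lines were treated in 384-well plates with compounds at 1, 10, 100, 1000 or 10000 nM for 72 h at 37 °C in 5% CO2. Signals from CellTiter-Glo luminescence were scaled with vehicle as 100% and a 10 µM positive control as 0%.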

HEL = test: as above
How it was run: as §2

HL-60 [3] = test: as above
How it was run: as §2

K-562 = test: as above
How it was run: as §2

KCL-22 = test: as above
How it was run: as §2

KG-1 = test: as above
How it was run: as §2

KU-812 = test: as above
How it was run: as §2

LAMA-84 = test: as above
How it was run: as §2

ML-2 = test: as above
How it was run: as §2

MOLM-13 = test: as above
How it was run: as §2

MV4-11 [4] = test: as above
How it was run: as §2

Mono-Mac-6 = test: as above
How it was run: as §2

NOMO-1 = test: as above
How it was run: as §2

SHI-1 = test: as above
How it was run: as §2

THP-1 = test: as above
How it was run: as §2

HL-60 [5] = test: area under dose-response curve (viability, 1 nM-10 uM) (fraction (0-1)); higher = more sensitive
How it was run: as §1

COc1ccc(CNC(=O)Nc2ncc([N+](=O)[O-])s2)cc1
Settings	IC50 (cell viability) [µM]
MV4-11 [1]	> 10

cell viability [%], HL-60 [2]
Settings	0.001 µM	0.01 µM	0.1 µM	1 µM	10 µM
co-treatment: AZD3965 100 nM	99.1 ± 14	97.6 ± 3.6	102 ± 4.4	91.4 ± 3.9	95.2 ± 1.6
co-treatment: DMSO vehicle	103 ± 2.9	94.7 ± 4.3	99.35 ± 0.68	102 ± 1.5	107 ± 7.6
co-treatment: GSK2194069 100 nM	89.7 ± 16	81 ± 3.1	106 ± 3.5	86.5 ± 5.7	116 ± 7.2
co-treatment: pictilisib 100 nM	84 ± 31	103 ± 5.9	106 ± 3.8	96.3 ± 4.1	105 ± 9.1

Settings	area under dose-response curve, co-treatment: AZD3965 100 nM	area under dose-response curve, co-treatment: DMSO vehicle	area under dose-response curve, co-treatment: GSK2194069 100 nM	area under dose-response curve, co-treatment: pictilisib 100 nM	cell viability, 1 nM [%]	cell viability, 10 nM [%]	cell viability, 100 nM [%]	cell viability, 1000 nM [%]	cell viability, 10000 nM [%]
BV-173	–	–	–	–	91.7	100	101	97.7	92.7
HEL	–	–	–	–	111	98	113	108	109
HL-60 [3]	–	–	–	–	108	101	115	95.6	104
HL-60 [5]	< 0.0301	< 0.0301	< 0.0301	< 0.0301	–	–	–	–	–
K-562	–	–	–	–	85.6	103	108	89.4	97.7
KCL-22	–	–	–	–	106	97.7	104	102	79.7
KG-1	–	–	–	–	90.5	146	93.8	94.8	173
KU-812	–	–	–	–	97.8	107	92.1	96.7	122
LAMA-84	–	–	–	–	109	105	110	104	108
ML-2	–	–	–	–	91.8	101	107	105	104
MOLM-13	–	–	–	–	99.8	108	97.8	102	105
MV4-11 [4]	–	–	–	–	101	99.1	108	94.7	90.6
Mono-Mac-6	–	–	–	–	96	98	96.7	91.3	70.2
NOMO-1	–	–	–	–	108	97.1	97.9	106	99.5
SHI-1	–	–	–	–	105	101	103	106	89.8
THP-1	–	–	–	–	101	101	104	105	99.1

CN(C)c1cc(NC(=O)CNC(C)(C)C)c(O)c2c1C[C@H]1C[C@H]3[C@H](N(C)C)C(=O)C(C(N)=O)C(=O)[C@@]3(O)C(=O)C1C2=O (stereo not given in full) [Tigecycline]
Settings	IC50 (cell viability) [µM]
MV4-11 [1]	> 10

cell viability [%], HL-60 [2]
Settings	0.001 µM	0.01 µM	0.1 µM	1 µM	10 µM
co-treatment: AZD3965 100 nM	103 ± 5.2	98.51 ± 0.53	106 ± 2.4	103 ± 5	101 ± 3.3
co-treatment: DMSO vehicle	102 ± 6.9	102.7 ± 0.82	105 ± 2.6	101.5 ± 0.45	105 ± 3.9
co-treatment: GSK2194069 100 nM	101.8 ± 0.14	96.3 ± 14	101 ± 6	96.7 ± 1.9	103 ± 11
co-treatment: pictilisib 100 nM	97.3 ± 1.4	100 ± 1.1	103.3 ± 0.24	101.8 ± 0.58	102 ± 11

Settings	area under dose-response curve, co-treatment: AZD3965 100 nM	area under dose-response curve, co-treatment: DMSO vehicle	area under dose-response curve, co-treatment: GSK2194069 100 nM	area under dose-response curve, co-treatment: pictilisib 100 nM	cell viability, 1 nM [%]	cell viability, 10 nM [%]	cell viability, 100 nM [%]	cell viability, 1000 nM [%]	cell viability, 10000 nM [%]
BV-173	–	–	–	–	119	107	97.4	84	83.4
HEL	–	–	–	–	110	92.4	101	99.7	71.6
HL-60 [3]	–	–	–	–	153	81.2	69.6	110	75.6
HL-60 [5]	< 0.0301	< 0.0301	< 0.0301	< 0.0301	–	–	–	–	–
K-562	–	–	–	–	102	93.4	92.1	90.6	83.4
KCL-22	–	–	–	–	108	95	96.4	94.6	79.4
KG-1	–	–	–	–	111	82.5	104	94.8	66.5
KU-812	–	–	–	–	102	97	95.8	94.4	86.8
LAMA-84	–	–	–	–	105	94.3	105	102	90
ML-2	–	–	–	–	118	93.4	90.8	96.4	63
MOLM-13	–	–	–	–	119	84	90.8	96	88.9
MV4-11 [4]	–	–	–	–	117	89.3	101	88.3	93.2
Mono-Mac-6	–	–	–	–	112	108	100	105	93.7
NOMO-1	–	–	–	–	106	97.7	87	101	99.3
SHI-1	–	–	–	–	113	97.9	97.1	115	93.4
THP-1	–	–	–	–	107	100	104	105	105

N#CC(C#N)=NNc1ccc(OC(F)(F)F)cc1 [FCCP]
Settings	IC50 (cell viability) [µM]
MV4-11 [1]	2.44

cell viability [%], HL-60 [2]
Settings	0.001 µM	0.01 µM	0.1 µM	1 µM	10 µM
co-treatment: AZD3965 100 nM	101 ± 4.1	102 ± 4.2	82.8 ± 21	110 ± 1.1	8.55 ± 0.41
co-treatment: DMSO vehicle	99.6 ± 1.4	94.6 ± 5	99.9 ± 2.1	104 ± 1.9	10.3 ± 0.31
co-treatment: GSK2194069 100 nM	97.2 ± 4.7	102 ± 6.5	80.2 ± 26	102.3 ± 0.53	13.8 ± 3.3
co-treatment: pictilisib 100 nM	98.3 ± 1.8	98.5 ± 4.9	94.6 ± 4.5	104 ± 12	9.69 ± 3.2

Settings	area under dose-response curve, co-treatment: AZD3965 100 nM	area under dose-response curve, co-treatment: DMSO vehicle	area under dose-response curve, co-treatment: GSK2194069 100 nM	area under dose-response curve, co-treatment: pictilisib 100 nM	cell viability, 1 nM [%]	cell viability, 10 nM [%]	cell viability, 100 nM [%]	cell viability, 1000 nM [%]	cell viability, 10000 nM [%]
BV-173	–	–	–	–	119	94.9	96.7	82	-0.482
HEL	–	–	–	–	120	94.1	92.7	79.9	1.52
HL-60 [3]	–	–	–	–	88.2	92.4	109	88.5	0.501
HL-60 [5]	0.104	0.106	0.0946	0.107	–	–	–	–	–
K-562	–	–	–	–	109	93.4	92.1	74	1.97
KCL-22	–	–	–	–	110	83.6	85.8	68.3	4.51
KG-1	–	–	–	–	101	101	94.7	80.8	7.07
KU-812	–	–	–	–	108	98	92.4	65.7	0.082
LAMA-84	–	–	–	–	100	97.6	94.2	79.1	0.398
ML-2	–	–	–	–	104	96.5	105	82.3	0.124
MOLM-13	–	–	–	–	121	92.6	99.3	82.7	0.459
MV4-11 [4]	–	–	–	–	104	101	98.9	88.5	-1.01
Mono-Mac-6	–	–	–	–	100	92	96.1	82.8	3.03
NOMO-1	–	–	–	–	100	105	102	93.5	4.3
SHI-1	–	–	–	–	94.6	103	101	91.5	35.1
THP-1	–	–	–	–	104	94.3	102	102	7.73
